Measurements from patent EP2729445B1, “CYCLIC AMINE DERIVATIVES AS EP4 RECEPTOR ANTAGONISTS” (Rottapharm Biotech S.r.l., priority 2011, dated 2013).
Like-named read-outs stand apart in the source and are kept apart here. Each block holds one compound with its values, some of them ahead of it.

Columns and labels:
hEP4 receptors [1] = target: T1, hEP4 receptors (Homo sapiens, UniProt P35408); test: [3H]-Prostaglandin E2 membrane binding assay
T1 construct: membrane fraction used
Protocol: (§1) The cDNA clone of human EP4 receptor (NM_000958.2) was obtained from InvitrogenTM: Ultimate™ ORF Clone Collection - Clone ID IOH46525. The coding sequence was subcloned in expression vector pcDNATM6.2/V5-DEST by Gateway technology (InvitrogenTM). Human embryonic kidney cells (HEK-293) were stably transfected with expression vector for human EP4 receptor in according to the method described in FuGENE®6 Transfection Reagent's manual (Roche Applied Science®).
(§2) The EP4 transfected cells were grown in Dulbecco's modified Eagle's medium containing 10% fetal bovine serum and 10 µg/ml Blasticidin S HCl (selection medium) at 37°C in a humidified atmosphere of 5% CO2 in air. For the membrane preparation, cells in flask were harvested by hypotonical/mechanical lysis with chilled (4°C) TE buffer (5mM TRIS, 5mM ethylenediamine tetra-acetic acid (EDTA), pH 7.4). Cells were detached and lysed with 10ml of hypotonic lysis buffer and by scraping. The cell lysate was vortexed for 30 sec and centrifuged at 40000x g at 4°C for 22min.
The membrane pellet was resuspended in the same buffer (5mM TRIS, 5mM ethylenediamine tetra-acetic acid (EDTA), pH 7.4), and protein concentration was determined by Bradford method (Bio-Bad® assay). This membrane preparation was stored at -80°C freezer until use for binding assay. ([^3H]-PGE2) membranes binding assays toward hEP4 receptors (human EP4/HEK293 transfectant, see above) and hEP2 receptors (human EP2/HEK293 transfectant, purchased from PerkinElmer Inc) were performed in 10 mM MES-KOH buffer pH6, containing 10 mM MgCl2 and 1 mM CaCl2 for EP4 binding assay or 50 mM Tris-Cl, BSA 0.5% for EP2 binding assay (according to supplier indication) . Ten microgram of protein from membrane fractions were incubated in a total volume of 0.1ml (EP4) or 0.2ml (EP2) with 1nM (EP4) or 3nM (EP2) [^3H]-PGE2 (PerkinElmer Inc, 171Ci/mmol). In both assays to determine the total binding or non specific binding, 1% DMSO or 1µM prostaglandin E2 (EP4) or 100 µM (EP2) were added to reaction mixtures, respectively. Incubation was conducted in a polypropylene 96 multiwell for 90 min (EP4) or 60 min (EP2) at room temperature prior to separation of the bound and free radioligand by vacuum manifold rapid filtration on glass fiber filters (Unifilter GFB96, PerkinElmer Inc) pre-soaked in 0.3% polyethyleneimine. Filters were washed with ice cold buffer pH 7.4 (50mM HEPES, NaCl 500mM, BSA 0.1% for EP4 binding assay or 50mM Tris-Cl for EP2 binding assays) and the residual [^3H]-PGE2 binding determined by solid scintillation counter (TopCount , PerkinElmer Inc).
The affinity (Ki) of each compound was calculated according to the Cheng-Prousoff equation: Ki = IC50/(1+([C]/Kd)). Results were expressed as pKi (- log10 Ki (M)

hEP4 receptors [2] = target: T1, hEP4 receptors; test: cAMP assay (AlphaScreen) on human EP4 membrane of transfected cells, antagonism of PGE2; format: biochemical; details: HEK293 cell membrane stimulated with PGE2 3nM; read-out: functional IC50
Protocol: as §1, §2
The assay is based on the competition between endogenous cAMP and exogenously added biotinylated cAMP. The capture of cAMP is achieved by using a specific antibody conjugated to Donor beads. Cell membranes prepared as described above, were resuspended in 1 ml stimulation buffer (HBSS 1X + BSA 0.1% + IBMX 0.5mM + HEPES 5mM + MgCl2 10mM + GTP 1 nM + GDP 10µM + ATP 100µM - pH 7.4). Cell membranes were dispensed into white 384-well microplates at final concentration of 1µg/well and used for the determination of cAMP with the alphascreen cAMP functional assay (EnVision - PerkinElmer). Cell membrane/anti-cAMP Acceptor beads mix (5 µl) and a mixture of analysed compounds (dissolved in 100% DMSO to a final maximal concentration of 0.01% DMSO)/PGE2 (5 µl) were incubated at room temperature (22-23°C) for 30 min in the dark. The Biotinylated-cAMP and donor beads (15 µl) were dispensed into each well to start the competition reaction. After 1 h incubation RT (22-23°C) in the dark the plate was read using EnVision platform to determine the cAMP level (excitation: 680nm; emission:520,620nm). In each experiment:
cAMP standard curve (concentration range from 1x10-6 to 1x10-11 M in log intervals) with a negative control (no cAMP)
a positive control: forskolin 10µM
Antagonism studies were performed stimulating HEK293 cell membrane with PGE2 3nM. The AlphaScreen signal is plotted as a function of log concentration of cAMP and functional IC50 is determined. IC50 value is calculated by linear regression.

[3] = Pharmacokinetics after intravenous and oral treatment, plasma LC-MS/MS; format: in vivo, male Han Wistar rats; details: rat; for AUC(0-t) / AUC(0-inf) / half-life / clearance / Vd / Cmax / Tmax / bioavailability: male, Han Wistar, plasma; for AUC(0-inf): extrapolated to infinity; for half-life / clearance / Vd: extrapolated, indicative only; for clearance: read-out: CLp* (converted); for Vd: read-out: Vss*
Protocol: The pharmacokinetics of compounds E7, E17 and E18, were studied in male Han Wistar rats. The rats were treated intravenously and orally (n=3 for each dose route) with compounds formulated as solutions. The rats were fitted with a jugular cannula for serial sampling. A full profile was acquired from each rat. Plasma extracts were quantitatively analyzed using a specific and sensitive LC-MS/MS bioanalytical method. Inter-individual variations between the three rats in each group were limited (CV for pharmacokinetic parameters was below 50%). […] A range of clearance values were obtained for the different structure, ranging from low to moderate values (from 43 to 250 ml/h). After oral administration, absorption was quite fast with a clear maximum concentration reached by the first sampling time-point of 15 minutes for all compounds.

[4] = human EP4/HEK293 transfectant membranes, 1nM [3H]-PGE2, Ki from IC50 by Cheng-Prousoff, pKi = -log10 Ki (M)
[5] = read-out: Binding pKi (converted)

T1 sequence (P35408 whole entry): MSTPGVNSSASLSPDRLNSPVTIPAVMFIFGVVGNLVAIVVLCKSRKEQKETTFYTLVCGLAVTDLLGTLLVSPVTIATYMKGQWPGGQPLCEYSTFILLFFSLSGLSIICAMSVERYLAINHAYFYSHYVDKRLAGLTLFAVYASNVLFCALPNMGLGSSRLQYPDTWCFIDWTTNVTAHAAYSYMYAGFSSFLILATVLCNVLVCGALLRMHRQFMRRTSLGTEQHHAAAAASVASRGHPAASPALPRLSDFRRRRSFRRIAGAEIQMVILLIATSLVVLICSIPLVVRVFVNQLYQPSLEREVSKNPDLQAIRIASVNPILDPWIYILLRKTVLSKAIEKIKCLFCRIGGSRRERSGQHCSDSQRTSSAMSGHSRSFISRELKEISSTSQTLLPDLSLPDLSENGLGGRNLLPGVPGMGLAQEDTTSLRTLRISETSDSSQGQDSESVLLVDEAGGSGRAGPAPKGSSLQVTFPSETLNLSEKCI

Compound: C[C@H](NC(=O)[C@H]1CCCN1Cc1ccc(C(F)(F)F)cc1)c1ccc(C(=O)O)cc1 [Example E27, lithium 4-((S)-1-((R)-1-(4-(trifluoromethyl)benzyl)pyrrolidine-2-carboxamido)ethyl)benzoate]
IC50 (hEP4 receptors [2]): 50 nM

Compound: O=C(O)c1ccc(C2(NC(=O)[C@H]3CCCCN3Cc3ccc(C(F)(F)F)cc3)CC2)cc1 [Example E4, lithium (R)-4-(1-(1-(4-(trifluoromethyl)benzyl)piperidine-2-carboxamido)cyclopropyl)benzoate]
IC50 (hEP4 receptors [2]): 32 nM

Compound: O=C(O)c1ccc(C2(NC(=O)C3CC4(CCN3Cc3ccc(C(F)(F)F)cc3)CC4)CC2)cc1 (single isomer, unassigned) [Example E7, 4-(1-(6-(4-(trifluoromethyl)benzyl)-6-azaspiro[2.5]octane-5-carboxamido)cyclopropyl)benzoic acid]
Ki (hEP4 receptors [1]; [5]): 3.16e-08 M
IC50 (hEP4 receptors [2]): 22 nM
AUC(0-t) ([3]; iv, 5 mg/kg): 29200 ng·h/mL
AUC(0-inf) ([3]; iv, 5 mg/kg): 31800 ng·h/mL
half-life ([3]; iv, 5 mg/kg): 7.4 h
clearance ([3]; iv, 5 mg/kg): 0.717 mL/min
Vd ([3]; iv, 5 mg/kg): 0.395 L
AUC(0-t) ([3]; po, 5 mg/kg): 22900 ng·h/mL
Cmax ([3]; po, 5 mg/kg): 5330 ng/mL
Tmax ([3]; po, 5 mg/kg): 0.5 h
bioavailability ([3]; po, 5 mg/kg, absolute oral bioavailability): 78%
AUC(0-inf) ([3]; po, 5 mg/kg): 24900 ng·h/mL
half-life ([3]; po, 5 mg/kg): 6.7 h
Tlast ([3]; iv, 5 mg/kg): 24 h
Tlast ([3]; po, 5 mg/kg): 24 h

Compound: C[C@H](NC(=O)C1CC2(CCN1Cc1ccc(C(F)(F)F)cc1)CC2)c1ccc(C(=O)O)cc1 (single isomer, unassigned) [Example E10]
Ki (hEP4 receptors [1]; [5]): 3.98e-08 M
IC50 (hEP4 receptors [2]): 29 nM

Compound: C[C@H](NC(=O)[C@H]1CC(F)(F)CCN1Cc1ccc(C(F)(F)F)cc1)c1ccc(C(=O)O)cc1 [Example E16, 4-((S)-1-((R)-4,4-difluoro-1-(4-(trifluoromethyl)benzyl)piperidine-2-carboxamido)ethyl)benzoic acid]
Ki (hEP4 receptors [1]; [4]): 2e-08 M
IC50 (hEP4 receptors [2]): 9 nM

Compound: C[C@H](NC(=O)[C@H]1CCC2CC2N1Cc1ccc(C(F)(F)F)cc1)c1ccc(C(=O)O)cc1 (stereo partly drawn) [Example E26, 4-((1S)-1-((3R)-2-(4-(trifluoromethyl)benzyl)-2-azabicyclo[4.1.0]heptane-3-carboxamido)ethyl)benzoic acid]
Ki (hEP4 receptors [1]; [5]): 1.58e-09 M
IC50 (hEP4 receptors [2]): 42 nM

Compound: O=C(O)c1ccc(C2(NC(=O)C3CC4(CCN3Cc3cccc(C(F)(F)F)c3)CC4)CC2)cc1 (single isomer, unassigned) [Example E9, 4-(1-(6-(3-(trifluoromethyl)benzyl)-6-azaspiro[2.5]octane-5-carboxamido)cyclopropyl)benzoic acid]
Ki (hEP4 receptors [1]; [4]): 6.31e-09 M
IC50 (hEP4 receptors [2]): 4 nM

Compound: O=C(O)c1ccc(C2(NC(=O)C3CC4CC4CN3Cc3ccc(C(F)(F)F)cc3)CC2)cc1 (single isomer, unassigned) [Example E23, 4-(1-(3-(4-(trifluoromethyl)benzyl)-3-azabicyclo[4.1.0]heptane-4-carboxamido)cyclopropyl)benzoic acid]
Ki (hEP4 receptors [1]; [5]): 1e-08 M
IC50 (hEP4 receptors [2]): 11.5 nM

Further lines, results first:

Ki (hEP4 receptors [1]; [4]): 1.26e-08 M
IC50 (hEP4 receptors [2]): 8 nM
Compound: C[C@H](NC(=O)C1CC(C)(C)CCN1Cc1ccc(C(F)(F)F)cc1)c1ccc(C(=O)O)cc1 (single isomer, unassigned) [Example E13]

Ki (hEP4 receptors [1]; [5]): 2.51e-09 M
IC50 (hEP4 receptors [2]): 16 nM
Compound: O=C(O)c1ccc(C2(NC(=O)[C@H]3C[C@H]4C[C@H]4N3Cc3cccc(C(F)(F)F)c3)CC2)cc1 [Example E29, 4-(1-((1R,3R,5R)-2-(3-(trifluoromethyl)benzyl)-2-azabicyclo[3.1.0]hexane-3-carboxamido)cyclopropyl)benzoic acid]

Ki (hEP4 receptors [1]; [5]): 6.31e-09 M
IC50 (hEP4 receptors [2]): 11 nM
AUC(0-t) ([3]; iv, 1 mg/kg): 1260 ng·h/mL
AUC(0-inf) ([3]; iv, 1 mg/kg): 1390 ng·h/mL
half-life ([3]; iv, 1 mg/kg): 9.3 h
clearance ([3]; iv, 1 mg/kg): 3.17 mL/min
Vd ([3]; iv, 1 mg/kg): 1.7 L
AUC(0-t) ([3]; po, 1 mg/kg): 1170 ng·h/mL
Cmax ([3]; po, 1 mg/kg): 556 ng/mL
Tmax ([3]; po, 1 mg/kg): 0.5 h
AUC(0-inf) ([3]; po, 1 mg/kg): 1200 ng·h/mL
half-life ([3]; po, 1 mg/kg): 5.1 h
bioavailability ([3]; po, 1 mg/kg): 93%
Tlast ([3]; iv, 1 mg/kg): 24 h
Tlast ([3]; po, 1 mg/kg): 24 h
Compound: O=C(O)c1ccc(C2(NC(=O)C3CC(F)(F)CCN3Cc3ccc(C(F)(F)F)cc3)CC2)cc1 (single isomer, unassigned) [Example E18, 4-(1-(4,4-difluoro-1-(4-(trifluoromethyl)benzyl)piperidine-2-carboxamido)cyclopropyl)benzoic acid]

Ki (hEP4 receptors [1]; [5]): 3.16e-09 M
IC50 (hEP4 receptors [2]): 43 nM
Compound: O=C(O)c1ccc(C2(NC(=O)[C@H]3CCC4CC4N3Cc3ccc(C(F)(F)F)cc3)CC2)cc1 (stereo partly drawn) [Example E25, 4-(1-((3R)-2-(4-(trifluoromethyl)benzyl)-2-azabicyclo[4.1.0]heptane-3-carboxamido)cyclopropyl)benzoic acid]

Ki (hEP4 receptors [1]; [4]): 5.01e-09 M
IC50 (hEP4 receptors [2]): 21 nM
Compound: O=C(O)c1ccc(C2(NC(=O)[C@H]3C[C@H]4C[C@H]4N3Cc3ccc(C(F)(F)F)cc3)CC2)cc1 [Example E30, 4-(1-((1R,3R,5R)-2-(4-(trifluoromethyl)benzyl)-2-azabicyclo[3.1.0]hexane-3-carboxamido)cyclopropyl)benzoic acid]
